In PubChem BioAssay AID2742 (NMMLSC, 2010):
Activity calls are given as the source filed them.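 The calls were made as follows: active = fitted half-maximal concentration for changing background-corrected GFP signal at or below a set limit; inactive = the rest.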

Experiment: TOR pathway reporter MEP2-GFP, concentration series – S. cerevisiae, flow cytometry GFP, MLPCN hits, dose response (AID 2742);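 also: GFP tag reports level of MEP2 protein as a downstream target of TOR signalling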
Conditions: S. cerevisiae MEP2-GFP strain, flow cytometry fluorescence, 3 h; at 33 µM (top of the series)

Compound | GFP fluorescence (kMESF), higher = increase
CCCOc1ccc(C(=O)NNC(=S)NC(=O)c2ccccc2)cc1 | 4.61 kMESF (inactive)
CC1=C/C(=N\OS(=O)(=O)c2ccccc2)C(C(C)C)=CC1=O | 8.38 kMESF (inactive)
CS(=O)(=O)c1sc(C#N)c2c1C(=O)CC(c1ccccc1)C2 (stereo not given) | 4.8 kMESF (inactive)
O=C(c1ccc(Cl)cc1)N1CCN(c2cccc3[nH]ccc23)CC1 | 3.33 kMESF (inactive)
COc1ccc(C(=O)/C=C2/C(=O)Nc3ccccc32)c(OC)c1 | 3.34 kMESF (inactive)
Cc1c(NC2=C(Cl)C(=O)N(c3ccccc3)C2=O)c(=O)n(-c2ccccc2)n1C | 2.91 kMESF (inactive)
O=C(NCc1ccc2c(c1)OCO2)c1nc(S(=O)(=O)Cc2ccccc2)ncc1Cl | 2.56 kMESF (inactive)
O=C1C(Cl)=C(N2CCN(Cc3ccccc3)CC2)C(=O)N1c1ccccc1 | 3.31 kMESF (inactive)
CCCc1ccc(OCC(=O)NNC(=S)NC(=O)c2ccco2)cc1 | 9.05 kMESF (inactive)
Oc1c(I)cc(I)c2cccnc12 | 4.67 kMESF (inactive)
O=C(NNC(=S)NC(=O)C12CC3CC(CC(C3)C1)C2)c1ccncc1 | 6.72 kMESF (inactive)
N/C(=N\OC(=O)c1ccccc1Cl)c1ccc(Cl)cc1 | 3.91 kMESF (inactive)
O=C1N(c2ccccc2C(F)(F)F)O[C@@]1(c1ccccc1)C1CCCCC1 | 2.87 kMESF (inactive)
CCC(=O)Oc1oc(-c2ccccc2)nc1C=Nc1ccccc1OC | 2.69 kMESF (inactive)
Cc1ccc(N2C(=O)CC(Sc3ncn[nH]3)C2=O)cc1C (stereo not given) | 3.74 kMESF (inactive)
O=C(COc1c(Br)cc(Br)c2cccnc12)N1CCc2ccccc2C1 | 4.11 kMESF (inactive)
CC1(c2ccccc2)ON(c2ccccc2C(F)(F)F)C1=O (stereo not given) | 4.18 kMESF (inactive)
O=C(O)c1cc[c]([Hg][Cl])cc1 | 4.47 kMESF (inactive)

Compound | GFP fluorescence (kMESF), higher = increase
O=[N+]([O-])c1c(Nc2ccccn2)cc(Cl)c2nonc12 | 21.3 kMESF (inactive)
CS(=O)(=O)c1nc(-c2cccs2)cc(C(F)(F)F)n1 | 6.41 kMESF (inactive)
O=c1cc(-c2ccccc2)cc(-c2ccccc2)n1O | 4.49 kMESF (inactive)
O=C1C=CC(=O)N1c1cccc(-c2ccccc2)c1 | 5.31 kMESF (inactive)
Cc1ccc(C(=O)NNC(=S)NC(=O)c2ccco2)cc1 | 4.91 kMESF (inactive)
COc1cccc(/C=C/C(=O)c2c(O)cc(C)oc2=O)c1O | 4.26 kMESF (inactive)
CCc1ccc(C(=O)/C=C/c2ccc([N+](=O)[O-])o2)cc1 | 6.79 kMESF (inactive)
O=C1Oc2ccccc2C(=O)/C1=C/c1ccccc1O | 5.39 kMESF (inactive)
O=C1ON=C(c2ccc(Cl)cc2)/C1=C/c1ccc(O)cc1 | 3.61 kMESF (inactive)
CC(C)C[C@]1(c2ccccc2)ON(c2ccccc2C(F)(F)F)C1=O | 2.97 kMESF (inactive)
O=C(Oc1oc(-c2ccco2)nc1C=Nc1ccccc1)c1ccco1 | 4.57 kMESF (inactive)
Cc1ccccc1[C@@]1(C)ON(c2ccccc2C(F)(F)F)C1=O | 3.31 kMESF (inactive)
Cc1ccc(/C=C2\SC(=S)N(CC3CCCO3)C2=O)o1 (stereo not given) | 4.83 kMESF (inactive)
COc1ccc(N=Nc2ccc(O)c3ncccc23)cc1 | 4.94 kMESF (inactive)
COc1ccc(OCC(=O)NNC(=S)NC(=O)C2CCCCC2)cc1 | 3.25 kMESF (inactive)
O=C1Nc2ccccc2/C1=C\C(=O)c1ccccc1 | 5.08 kMESF (inactive)
Cc1ccc(S(=O)(=O)N2CCCC2C(=O)NCc2ccncc2)cc1 (stereo not given) | 2.1 kMESF (inactive)
